Patent US20030032614A1, “Method of treating respiratory distress using synthetic polynucleic acids” (priority 1995, published 2003)
Where two headings read alike, the source gives them in different places.

Key:
respiratory congestion = experiment: Treatment of patients with respiratory congestion (emphysema, bronchitis, upper respiratory illness, sinusitis); assay type: in vivo, human; conditions: middle-aged person, chronic sinusitis, one sublingual drop (0.0003 mg) four times daily
Protocol: A patient who suffered from emphysema and bronchitis, as diagnosed by their physician, was placed on a dose of 1 drop per day (0.0006 mg/drop) of DNA sublingually.
A person diagnosed with chronic upper respiratory illness was treated with methods according to the invention. Previous antibiotic therapy was unsuccessful in treating their condition. […] They have remained symptom free.
A nurse presented with a severe upper respiratory infection and unproductive respiratory congestion. […] Expectoration was improved and the patient's illness resolved after 4.5 days and no congestion recurred.
A person presented with chronic sinusitis. Four drops of DNA per day were administered.
A person presented with unresolved respiratory congestion. […] The patient was then prescribed four drops of DNA (0.0006 mg/drop) per day.
A person with unproductive upper respiratory congestion was placed on 4 drops of DNA (0.0006 mg/drop) per day. […] In this case, therapy was supplemented with an over-the-counter expectorant.
A person with acute and chronic respiratory disease due to exposure to toxic corrosive materials was treated with methods according to the invention. Prior to such treatment, symptoms, including chronic rhinorrhea, chest congestion and chronic respiratory infections were treated with numerous courses of antibiotics without success. […]

heaves (equine COPD) = assay type: in vivo, horse
Protocol: According to this example, a quarter horse mare, at least 20 years of age, suffering from symptoms of heaves (equine COPD) for over ten years was treated subcutaneously twice daily with synthetic DNA. Each dose contained 0.0003 mg of poly(dA):poly(dT) synthetic DNA (Sigma) diluted in phenolated saline. […] Specifically, the horse was no longer coughing, nostrils were not flaring, and breathing was less labored. After one week of administering two doses per day, administration was reduced to once per day for two weeks, then given only on an “as needed” basis.
According to this example, a 15 year old gelding (male horse) suffering from heaves (equine COPD) for over two years was treated with synthetic DNA as described in example XXXIX.

cystic fibrosis = experiment: Treatment of cystic fibrosis patients with DNA drops; assay type: in vivo, human; conditions: person, advanced cystic fibrosis, 0.0003 mg per sublingual drop, four times daily

Substance: poly(dA):poly(dT)
- overall response (respiratory congestion): improved overall response, including the absence of headaches
- time to improvement in condition (respiratory congestion): ≤ 48 h
- improvement (heaves (equine COPD); 15 year old gelding, treated as in example XXXIX): Improvement was noted within the first three days
- adverse effects (heaves (equine COPD); in vivo): no adverse effects noted
- condition of the horse (heaves (equine COPD); quarter horse mare, 0.0003 mg subcutaneously twice daily, thirty-six hours after treatment began): significantly improved
- therapeutic activity after change to synthetic DNA (cystic fibrosis): no decrease in therapeutic activity

Substance: poly(dG):poly(dC)
- condition of the horse (heaves (equine COPD); 15 year old gelding): significant improvement
- condition of the horse (heaves (equine COPD); quarter horse mare, identical treatment): significant improvement
- therapeutic activity after change to synthetic DNA (cystic fibrosis): same results
